The source of these data is patent US5219740A, “Retroviral gene transfer into diploid fibroblasts for gene therapy” (Fred Hutchinson Cancer Research Center, priority 1987, dated 1993).

For one experiment, the system named is NIH 3T3. As to the kind of experiment: Drug concentration needed for complete cell killing. It counts as cell-based, mouse. To be noted: for Drug Concentrations Needed For Complete Cell Killing: Mouse NIH 3T3, scored after 10 days. The procedure:
(§1) Three drugs were tested for their ability to kill human diploid fibroblasts (HDF): the neomycin analogue G418, Hygromycin-B (Hygro), and Methotrexate (Mtx). Four HDF lines were isolated from skin biopsies of normal human donors: HDF 78-18, from a […] fetus; HDF 1-85, from newborn foreskin; HDF 79-81, from a person; and HDF 72-46, from a person. The four fibroblast lines were isolated using standard methods (Meth. Cell Biol. 219:255-276, 1980, hereby incorporated by reference) and were maintained in culture for 22 to 31 population doublings using Dulbecco-Vogt Modified Eagles Medium (D MEM) supplemented with 10% fetal bovine serum (FBS). NIH 3T3 immortalized mouse fibroblasts served as a control.
(§2) Cells were seeded at 10^4 per 3.5-cm dish in D MEM plus 10% FBS and drug, except for Mtx selection where 10% dialyzed FBS was used. Drug-resistant cells were scored after 10 days.

In a further experiment the test system is HDF 79-81. The experiment is described as above. The conditions noted are these: Adult HDF 79-81, scored after 10 days. It counts as cell-based, human. The protocol: as §1, §2
A further experiment relates to HDF 1-85. The experiment is described as above. The class given is cell-based, human. To be noted: Newborn HDF 1-85, scored after 10 days. The procedure: as §1, §2
For another experiment, the system named is HDF 72-46. The experiment is described as above. The class given is cell-based, human. The conditions noted are these: Adult HDF 72-46, scored after 10 days. The procedure:
as §1, §2

A further experiment relates to HDF 78-18. The description is as above. The class given is cell-based, human. The conditions noted are these: for Drug Concentrations Needed For Complete Cell Killing: Fetal HDF 78-18, scored after 10 days. The protocol:
as §1, §2

The test system of experiment [1] is human diploid fibroblast cell lines. As to the kind of experiment: Drug killing, summary over HDF lines. It counts as cell-based. The protocol:
as §1, §2

For another experiment, the system named is SF03 cells. As to the kind of experiment: Adenosine killing of ADA-deficient fibroblasts. The class given is cell-based, human. An excerpt:
(§3) Referring to FIG. 5, the ADA vector LNSAL was made by inserting an ADA cDNA (Valerio, D., et al., Gene 31:147-153, 1984) linked to a SV40 early region enhancer/promoter downstream of the neo gene in N2. Helper-free virus was made by introduction of LNSAL into PA317 amphotropic retrovirus-packaging cells (ATCC No. CRL 9078), as described in Mol. Cell. Biol. 6:2895-2902, 1986, hereby incorporated by reference. […] Using either G418 or adenosine, the expression of either neo and the ADA gene was assayed in LNSAL-infected cells.

For experiment [2], the system named is normal human diploid fibroblasts. Kind of experiment: Adenosine effect on normal fibroblasts. The class given is cell-based. The conditions noted are these: 2 mM.
Source text: as §3

Consider `CN(Cc1cnc2nc(N)nc(N)c2n1)c1ccc(C(=O)N[C@@H](CCC(=O)O)C(=O)O)cc1` [Mtx, Methotrexate], for which the “Drug Concentrations Needed For Complete Cell Killing” value in the experiment on NIH 3T3 (10% dialyzed FBS) was 0.1 µM; with HDF 79-81 (10% dialyzed FBS) it was greater than 10 µM; in the experiment with HDF 1-85 (10% dialyzed FBS) it was greater than 1000 µM; with HDF 72-46 (10% dialyzed FBS), greater than 1000 µM; in the experiment with HDF 78-18 (10% dialyzed FBS) it was greater than 1000 µM. In addition, the “concentration that efficiently killed the cells” value in the experiment on NIH 3T3 (NIH 3T3 cells) is 10^-7 M. In addition, the “colony formation at the highest concentration of Mtx used” value in the experiment on HDF 78-18 (HDF 78-18, viable cells remained after 15 days of selection) is given as “did not form colonies”; in experiment [1] (all HDF lines with the exception of HDF 78-18) it was “formed colonies”. Also, the figures for the “concentration to which the cell lines were resistant to killing” value in experiment [1] (human diploid fibroblast cell lines) and in experiment [1] (most human diploid fibroblast cell lines) were > 10^-5 M and “more than 10^-3 M”, respectively.
With `CNC1C(O)C(OC2C(N)CC(N)C(OC3OC(C(C)O)C(O)C(O)C3N)C2O)OCC1(C)O` (centres unmarked) [Vector G418], the “Drug Concentrations Needed For Complete Cell Killing” value in the experiment on NIH 3T3 (weight of dry powder) stood at 1000 µg/mL; in the experiment with HDF 79-81 (weight of dry powder), 1000 µg/mL; with HDF 1-85 (weight of dry powder) it was 500 µg/mL; in the experiment on HDF 72-46 (weight of dry powder), 500 µg/mL; in the experiment on HDF 78-18 (weight of dry powder), 500 µg/mL.
Consider `Nc1ncnc2c1ncn2[C@@H]1O[C@H](CO)[C@@H](O)[C@H]1O` [adenosine], for which the “concentration that kills the cells” value in the experiment on SF03 cells came out at 2 mM. For the same compound, in experiment [2], the “effect on the cells” value was “no effect”.
